Earlier results as cited in patent US20160174603A1, “Electronic Vapor Liquid Composition and Method of Use” (priority 2014, published 2016).
pKi: −log10 of the molar value.

Assays:
MAO-B = molecular target: T1, MAO-B (Homo sapiens, UniProt P27338); settings: read-out: Ki, reversible MAO-B inhibitor
T1 sequence (P27338 1-520): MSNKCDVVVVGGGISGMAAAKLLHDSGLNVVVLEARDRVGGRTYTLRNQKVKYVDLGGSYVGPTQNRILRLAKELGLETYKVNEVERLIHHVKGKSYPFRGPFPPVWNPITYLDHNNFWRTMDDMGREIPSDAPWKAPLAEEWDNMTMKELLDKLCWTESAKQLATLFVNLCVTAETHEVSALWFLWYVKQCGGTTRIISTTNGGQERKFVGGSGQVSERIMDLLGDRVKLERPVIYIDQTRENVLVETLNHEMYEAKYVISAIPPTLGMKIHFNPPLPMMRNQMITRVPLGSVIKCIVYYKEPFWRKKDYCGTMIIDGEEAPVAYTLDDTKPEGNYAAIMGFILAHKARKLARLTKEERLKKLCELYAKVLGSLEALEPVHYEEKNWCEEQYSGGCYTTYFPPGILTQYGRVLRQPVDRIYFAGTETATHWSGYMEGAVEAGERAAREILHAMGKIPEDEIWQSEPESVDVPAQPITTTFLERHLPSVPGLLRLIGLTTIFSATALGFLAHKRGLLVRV

[1] = test system: dopamine levels in the nucleus accumbens; settings: rat, in vivo
TRPC6 receptor = molecular target: T2, TRPC6 receptor (Homo sapiens, UniProt Q9Y210)
T2 sequence (Q9Y210 1-931): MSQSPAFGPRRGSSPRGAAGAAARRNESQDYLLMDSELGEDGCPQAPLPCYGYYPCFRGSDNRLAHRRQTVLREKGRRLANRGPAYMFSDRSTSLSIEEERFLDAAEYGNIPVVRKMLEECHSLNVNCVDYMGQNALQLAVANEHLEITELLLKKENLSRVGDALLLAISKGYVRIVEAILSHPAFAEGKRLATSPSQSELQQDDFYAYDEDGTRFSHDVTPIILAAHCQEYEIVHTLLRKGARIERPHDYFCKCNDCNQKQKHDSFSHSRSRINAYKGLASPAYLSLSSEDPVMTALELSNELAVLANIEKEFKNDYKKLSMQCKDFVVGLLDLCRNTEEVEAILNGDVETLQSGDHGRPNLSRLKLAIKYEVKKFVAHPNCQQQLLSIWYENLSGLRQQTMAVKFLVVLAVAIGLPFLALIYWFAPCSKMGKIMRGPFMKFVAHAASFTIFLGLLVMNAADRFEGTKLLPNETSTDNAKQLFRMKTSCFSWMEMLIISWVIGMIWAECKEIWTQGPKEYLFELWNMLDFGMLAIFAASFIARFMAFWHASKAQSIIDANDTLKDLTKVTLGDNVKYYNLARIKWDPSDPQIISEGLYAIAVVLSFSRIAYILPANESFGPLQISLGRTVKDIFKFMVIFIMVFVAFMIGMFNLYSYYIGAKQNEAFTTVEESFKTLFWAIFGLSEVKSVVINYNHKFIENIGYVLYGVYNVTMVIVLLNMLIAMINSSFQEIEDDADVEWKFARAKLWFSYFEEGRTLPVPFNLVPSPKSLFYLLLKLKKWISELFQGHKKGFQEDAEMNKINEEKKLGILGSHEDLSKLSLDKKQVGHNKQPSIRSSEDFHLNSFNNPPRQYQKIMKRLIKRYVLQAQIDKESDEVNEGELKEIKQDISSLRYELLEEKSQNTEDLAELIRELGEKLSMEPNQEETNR

[2] = molecular target: norepinephrine transporter (NAT) (Homo sapiens, UniProt P23975); settings: both enantiomeric forms
Chain of norepinephrine transporter (NAT) (P23975 whole entry): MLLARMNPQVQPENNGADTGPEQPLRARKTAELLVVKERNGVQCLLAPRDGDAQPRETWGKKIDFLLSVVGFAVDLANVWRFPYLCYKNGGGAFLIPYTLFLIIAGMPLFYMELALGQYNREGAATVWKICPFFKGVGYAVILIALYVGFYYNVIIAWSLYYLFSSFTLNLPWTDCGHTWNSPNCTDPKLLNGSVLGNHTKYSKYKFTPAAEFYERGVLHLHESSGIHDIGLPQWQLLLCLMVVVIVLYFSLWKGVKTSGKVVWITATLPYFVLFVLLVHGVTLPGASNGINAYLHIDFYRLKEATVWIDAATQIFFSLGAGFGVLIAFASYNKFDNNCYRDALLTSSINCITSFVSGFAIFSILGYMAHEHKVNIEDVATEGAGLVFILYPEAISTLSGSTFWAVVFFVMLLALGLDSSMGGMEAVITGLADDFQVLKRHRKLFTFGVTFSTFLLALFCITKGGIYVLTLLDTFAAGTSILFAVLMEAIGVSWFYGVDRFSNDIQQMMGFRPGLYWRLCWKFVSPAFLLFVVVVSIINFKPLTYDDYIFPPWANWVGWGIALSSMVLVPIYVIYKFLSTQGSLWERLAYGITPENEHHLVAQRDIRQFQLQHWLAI

adenosine receptor = settings: in vitro
acetylcholinesterase = acetylcholinesterase (Homo sapiens, UniProt P22303); settings: in vitro
Chain of acetylcholinesterase (P22303 32-614, species assumed): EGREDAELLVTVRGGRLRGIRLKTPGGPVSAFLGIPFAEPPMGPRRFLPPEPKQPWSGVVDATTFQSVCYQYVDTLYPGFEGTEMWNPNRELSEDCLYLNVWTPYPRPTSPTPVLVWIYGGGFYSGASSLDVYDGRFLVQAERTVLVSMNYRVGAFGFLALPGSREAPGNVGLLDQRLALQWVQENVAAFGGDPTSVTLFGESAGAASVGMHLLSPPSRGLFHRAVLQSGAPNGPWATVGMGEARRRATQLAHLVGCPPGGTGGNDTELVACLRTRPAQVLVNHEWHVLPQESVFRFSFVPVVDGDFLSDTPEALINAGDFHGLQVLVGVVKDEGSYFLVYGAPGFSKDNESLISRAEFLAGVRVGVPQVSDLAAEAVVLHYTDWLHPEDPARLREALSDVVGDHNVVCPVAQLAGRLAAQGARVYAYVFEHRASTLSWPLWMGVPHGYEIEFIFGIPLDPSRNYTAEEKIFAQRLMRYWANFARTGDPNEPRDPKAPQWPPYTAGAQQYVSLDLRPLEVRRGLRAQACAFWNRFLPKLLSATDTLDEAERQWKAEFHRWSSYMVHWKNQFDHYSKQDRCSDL

Q: Which “effects in a rat model of thermal hyperalgesia” value (thermal hyperalgesia) does the source give for `O=C(O)[C@H]1O[C@@H](Oc2cc3oc(-c4ccccc4)cc(=O)c3c(O)c2O)[C@H](O)[C@@H](O)[C@@H]1O` [Baicalin] here?
A: The value was “anti-inflammatory and analgesic effects”.

Q: With `COc1cc(/C=C/c2ccccc2)oc(=O)c1` [Desmethoxyyangonin] as the compound, how does the pKi (MAO-B) read?
A: Its pKi is 6.55.

Q: What about the “dopamine levels in the nucleus accumbens” value [1] of the same compound?
A: Its value is “able to increase dopamine levels”.

Q: With `CC(C)=CCC[C@]1(C)[C@@H](CC=C(C)C)C[C@@]2(CC=C(C)C)C(=O)[C@]1(C(=O)C(C)C)C(=O)C(CC=C(C)C)=C2O` [Hyperforin] as the compound, how does the TRPC6 receptor activity (TRPC6 receptor) read?
A: The TRPC6 receptor activity was “TRPC6 receptor agonists”.

Q: With `COC1=CC(=O)O[C@@H](/C=C/c2ccccc2)C1` [Kavain] as the compound, how does the “reuptake of norepinephrine at the transporter (NAT)” value [2] read?
A: Its value is “inhibits the reuptake of norepinephrine”.

Q: Which TRPC6 receptor activity (TRPC6 receptor) does the source give for `CCC(C)C(=O)[C@]12C(=O)[C@](CC=C(C)C)(C[C@H](CC=C(C)C)[C@@]1(C)CCC=C(C)C)C(=O)C(CC=C(C)C)=C2O` (stereo partly shown) [adhyperforin] here?
A: The TRPC6 receptor activity was “TRPC6 receptor agonists”.

Q: For `C=C1C(=O)O[C@@H]2[C@H]3C(CO)=CC(=O)C3=C(C)C[C@@H](O)[C@@H]12` [lactucin], which adenosine receptor activity (adenosine receptor) is on record?
A: Its adenosine receptor activity is “adenosine receptor agonist”.

Q: With `CC[C@H]1CN2CC[C@]3(C(=O)Nc4ccccc43)[C@@H]2C[C@@H]1/C(=C\OC)C(=O)OC` [rhynchophylline] as the compound, how does the “effect on NMDA-induced current” value (NMDA-induced current) read?
A: Its value is “reduces NMDA-induced current”.

Q: And the calcium channel activity (calcium channel)?
A: The calcium channel activity was “calcium channel blocker”.

Q: With lactucopicrin as the compound, how does the acetylcholinesterase activity (acetylcholinesterase) read?
A: The acetylcholinesterase activity was “acetylcholinesterase inhibitor”.
